One test has as its system Cricetinae gen. sp. The experiment in a line: Compound was evaluated for uterine contraction relative to PGF2-alpha in hamsters. It counts as functional, hamster.
A further test relates to Gerbillinae. The experiment in a line: Compound was evaluated for gerbil colon contraction relative to PGF2-alpha. The format is functional.

The structures appear in SMILES notation.

For `CCCCC[C@H](O)CC[C@@]1(F)[C@H](O)C[C@H](O)[C@@H]1C/C=C\CCCC(=O)OC`, the Potency with Cricetinae gen. sp. was 0.016; in the test with Gerbillinae it was 0.004.

On to `CCCCC[C@@H](O)CC[C@@]1(F)[C@H](O)C[C@H](O)[C@@H]1C/C=C\CCCC(=O)OC`, for which the Potency is reported as 0.005 in the test with Cricetinae gen. sp. and 0.001 with Gerbillinae.

For the molecule `CCCCC[C@H](O)CC[C@@H]1[C@@H](C/C=C\CCCC(=O)OC)[C@@H](O)C[C@H]1O`, the Potency is listed as 0.95 in the test on Cricetinae gen. sp. and 0.11 in the test with Gerbillinae.

As to `CCCCC[C@H](O)/C=C/[C@@]1(F)[C@H](O)C[C@H](O)[C@@H]1C/C=C\CCCC(=O)OC`, the Potency in the test with Cricetinae gen. sp. is reported as 0.28; in the test with Gerbillinae, 0.001.

Regarding `CCCCC[C@@H](O)/C=C/[C@@]1(F)[C@H](O)C[C@H](O)[C@@H]1C/C=C\CCCC(=O)OC`, the Potency with Cricetinae gen. sp. worked out at 0.022; in the test on Gerbillinae, 0.011.

Take `CCCCC[C@H](O)/C=C/[C@@H]1[C@@H](C/C=C\CCCC(=O)O)[C@@H](O)C[C@H]1O` [DINOPROST]: the Potency with Cricetinae gen. sp. and in the test on Gerbillinae was 1 throughout.

Values taken from ChEMBL document CHEMBL1121920, “Synthesis and biological evaluation of the methyl esters of (+)-12-fluoro-13,14-dihydroprostaglandin F2alpha and (+)-15-epi-12-fluoro-13,14-dihydroprostaglandin F2alpha” (1981).
